# Test results from article PMC12662691, “DDX3X Promotes Rotavirus Infection and Serves as an Antiviral Target” (Transboundary and Emerging Diseases, 2025).
# How the values were obtained:
# MYAS33 RV strain [1] = test: EC50 determination of anti-RV activity by RT-qPCR, MYAS33 strain; format: cell-based; conditions: Rotavirus, 0.1 MOI, 24 h, read-out: EC50 against RV infection
# Procedure: (§1) Cells were seeded into 96-well plates, allowed to adhere, followed by drug inoculation in a concentration gradient along with RV infection at 0.1 MOI. After 24 h, cells were collected, total RNA was extracted, reverse transcription was performed, and RV was detected by RT-qPCR. The EC50 of the drug was calculated.
# MYAS33 RV strain [2] = test: Antiviral efficacy screen, western blot of viral proteins; format: cell-based, Rotavirus; conditions: range of drug concentrations
# Procedure: (a) Drugs were selected by gene dependent and network dependent strategy based on VP4 interacting proteins. (b) Cells were treated with a range of drug concentrations, and then, infected with MYAS33 RV strain. Subsequently, the cells were collected and subjected to western blot analysis to detect viral proteins.
# Cells were collected, washed with PBS, and digested with trypsin. The cells were then collected in PBS into centrifuge tubes. After centrifugation, the supernatant was discarded. The cells was lysed, and the resulting lysate was transferred to a new centrifuge tube. 5 × SDS-PAGE sample buffer was added, and the samples were boiled in a water bath. Subsequently, SDS-PAGE was performed, and the proteins were transferred onto nitrocellulose membranes. The membranes were blocked with 5% skim milk at room temperature, washed three times with TBST, and incubated overnight at 4°C with primary antibodies. After washing three times with TBST, corresponding secondary antibodies were added and incubated for 1 h at room temperature. Following three additional washes with TBST, ECL reagent was prepared and applied to the membrane. Finally, the membrane was exposed in a chemiluminescence imaging system.
# MSLH14 RV strain [3] = test: EC50 determination of anti-RV activity by RT-qPCR, MSLH14 strain; format: cell-based, Rotavirus
# Procedure: as §1
# SA11 RV strain = test: EC50 determination of anti-RV activity by RT-qPCR, SA11 strain; format: cell-based, Rotavirus
# Procedure: as §1
# MYAS33 RV strain [4] = test: RK-33 time course of RV infection, RT-qPCR; format: cell-based, Rotavirus
# Procedure: (§2) Figure 7 RK-33 inhibits RV infection. (a, b) Cells were incubated with 10 μM RK-33 and infected with MYAS33 RV strain. The viral detection was conducted at 3, 6, 12, and 24 hpi by RT-qPCR detection, and at 12 and 24 hpi by TCID50. (c, d) EC50 of RK-33 against MSLH14 and SA11 strains was measured. (e) Flowchart of in vivo drug experiment. (f) Weight gain rate of mice. (g) Intestinal virus titer detection in mice. (h) H&E staining of intestine. (i–l) Cytokine detection of spleen. Statistical significance is determined by Student's test (^∗p < 0.05; ^∗∗p < 0.01; ^∗∗∗p < 0.001; ^∗∗∗∗p < 0.0001). HD, high dose; LD, low dose; ns, not significant. […] The name RK-33 is printed only in the plot legends of panels a and b.
# Total RNA was extracted from collected samples using TRIzol reagent (Sangon Biotech) and subsequently reverse transcribed into cDNA using a premix reverse transcriptase (Vazyme). For qPCR analysis, a SYBR Green qPCR Mix kit (Promega) was utilized in combination with a CFX96 system. All procedures were carried out following the manufacturers' guidelines as described previously.
# MYAS33 RV strain [5] = test: RK-33 viral titer by TCID50; format: cell-based, Rotavirus
# Procedure: as §2
# MSLH14 RV strain [6] = test: In vivo drug experiment in RV-challenged neonatal mice; conditions: neonatal Kunming mice
# Procedure: Pregnant Kunming mice were individually housed and bred until delivery. Neonatal mice were raised for 1 week. Mice were inoculated with 10^4 TCID50 units of the MSLH14 RV strain via gavage. Drug administration was performed with 0.005 mg/g (low dose group) or 0.01 mg/g (high dose group). The drugs were dissolved in a solvent formulated as follows: 10% DMSO, 40% PEG300, 5% Tween-80, and 45% normal saline. Viral titers in the small intestine were determined using the TCID50 method. Spleens were collected for total RNA extraction, followed by reverse transcription and cytokine detection. For histopathological examination, tissues were fixed with 4% paraformaldehyde, paraffin embedded, sectioned into slices, and stained with hematoxylin and eosin following standard protocols as previously described.
# [7] = MSLH14, spleen, RT-qPCR, vs untreated controls
smiles,measurement,setting,value
CC(COc1ccccc1Cc1ccccc1)N1CCCCC1 (centres unmarked) [benproperine phosphate],EC50,MYAS33 RV strain [1],4.69 µM
same,Inhibitory effect against RV infection (antiviral efficacy screen),MYAS33 RV strain [2],exhibited inhibitory effects
Cc1[nH]c2ccccc2c1CCNC(=O)c1ccccc1F [CK-666],EC50,MYAS33 RV strain [1],2.85 µM
same,Inhibitory effect against RV infection (antiviral efficacy screen),MYAS33 RV strain [2],exhibited inhibitory effects
COc1ccc(Cn2c3ncnc4c(ncn4Cc4ccc(OC)cc4)c-3nc2=O)cc1 [RK-33],EC50,MYAS33 RV strain [1],1.05 µM
same,Inhibition of MSLH14 infection,MSLH14 RV strain [3],also inhibits SA11 and MSLH14 infections
same,EC50,"MSLH14 RV strain [3]; Rotavirus, 0.1 MOI, 24 h, RT-qPCR, read-out: EC50 against MSLH14",0.91 µM
same,Inhibition of SA11 infection,SA11 RV strain,also inhibits SA11 and MSLH14 infections
same,EC50,"SA11 RV strain; Rotavirus, 0.1 MOI, 24 h, RT-qPCR, read-out: EC50 against SA11",0.86 µM
same,Inhibitory effect against RV infection (antiviral efficacy screen),MYAS33 RV strain [2],exhibited inhibitory effects
same,Inhibitory effect on RV (RT-qPCR),"MYAS33 RV strain [4]; 10 μM RK-33, MYAS33, 3 hpi",no significant inhibitory effect
same,Inhibitory effect on RV (RT-qPCR),"MYAS33 RV strain [4]; 10 μM RK-33, MYAS33, 6 hpi",pronounced antiviral activity
same,Inhibitory effect on RV (RT-qPCR),"MYAS33 RV strain [4]; 10 μM RK-33, MYAS33, 12 hpi",pronounced antiviral activity
same,Inhibitory effect on RV (RT-qPCR),"MYAS33 RV strain [4]; 10 μM RK-33, MYAS33, 24 hpi",pronounced antiviral activity
same,Viral titer (TCID50),"MYAS33 RV strain [5]; 10 μM RK-33, MYAS33, 12 h",inhibited MYAS33 strain infection
same,Viral titer (TCID50),"MYAS33 RV strain [5]; 10 μM RK-33, MYAS33, 24 h",inhibited MYAS33 strain infection
same,Intestinal lesions (H&E histopathology),"MSLH14 RV strain [6]; MSLH14, 5 days postinfection",alleviated intestinal lesions
same,Spleen IFNG level,MSLH14 RV strain [6]; [7],significantly reduced levels
same,Spleen IL-1B level,MSLH14 RV strain [6]; [7],significantly reduced levels
same,Spleen IL-6 level,MSLH14 RV strain [6]; [7],significantly reduced levels
same,Spleen TNFA level,MSLH14 RV strain [6]; [7],significantly reduced levels
same,Recovery of body weight (weight gain rate),"MSLH14 RV strain [6]; MSLH14 by gavage, 0.005 mg/g (low dose) or 0.01 mg/g (high dose), vs untreated controls",faster recovery of body weight
same,Intestinal viral titer (TCID50),"MSLH14 RV strain [6]; MSLH14 by gavage, 0.005 or 0.01 mg/g, small intestine, vs untreated controls",significantly reduced
Cc1[nH]c2ccccc2c1CCNC(=O)c1cccs1 [CK-636],EC50,MYAS33 RV strain [1],5.3 µM
same,Inhibitory effect against RV infection (antiviral efficacy screen),MYAS33 RV strain [2],exhibited inhibitory effects
COCCCC/C(=N\OCCN)c1ccc(C(F)(F)F)cc1 [fluvoxamine],EC50,MYAS33 RV strain [1],14.8 µM
same,Inhibitory effect against RV infection (antiviral efficacy screen),MYAS33 RV strain [2],exhibited inhibitory effects
Clc1cccc(N2CCN(c3cnnc4c(Cl)cccc34)CC2)c1 [FiVe 1],EC50,MYAS33 RV strain [1],3.99 µM
same,Inhibitory effect against RV infection (antiviral efficacy screen),MYAS33 RV strain [2],exhibited inhibitory effects
